# Source: a melting point compilation (Tetko et al.; mined from patent text by program, amines drawn as free bases though some values may be those of a salt)
row,melting point,Compound
1,100 °C,NC(=O)N(O)C[C@H]1C[C@@H](c2ccccc2)C1
2,113 to 115 °C,c1ccc2c(c1)CCC21CCN(CCCCN2CCC3(CCc4ccccc43)CC2)CC1
3,131 to 133 °C,O=C(c1ccc(O)c(Cl)c1Cl)c1ccnn1Cc1ccccc1
4,248 °C,O=C(O)c1cnn2c(C(F)(F)F)cc(-c3ccc(C(F)(F)F)cc3)nc12
5,87.2 °C,O=S(=O)(Cl)c1cc2c(Br)cccc2o1
6,238 to 240 °C,O=C(O)CC1(O)CCC(N2CCN(CCNc3ccncc3)CC2)CC1 (stereo not drawn)
7,183 to 185 °C,Cc1ccc(C(=O)NC(NC(=S)Nc2cc(F)ccc2F)C(F)(F)F)cc1 (stereo not drawn)
8,120 to 122 °C,OC1CCN(c2nc(-c3ccccc3)cc(-c3ccc4c(c3)OCO4)n2)CC1
9,74 to 77 °C,CCOC(=O)N1CCCC(NC(=O)c2ccc(Cl)c(Cl)c2)C12CCCCC2 (stereo not drawn)
10,112 to 115 °C,COC(=O)Cn1cnc2c(OCc3ccccc3)ncnc21
11,120 °C,Cc1c(CC(=O)N[C@@H](CO)C(=O)O)cc(-c2ccc(S(C)(=O)=O)cc2)n1-c1ccc(F)cc1
12,148 to 150 °C,N#CCc1cn2cccc(OCc3ccccc3)c2n1
13,257 to 260 °C,CC(=O)Nc1nc2ccc(S(=O)(=O)n3c(COC(C)C(=O)O)cc4nc(Cl)ccc43)cc2s1 (stereo not drawn)
14,239 to 240 °C,CC(=O)c1nc(-c2ccc(Cl)nc2)[nH]c1C
15,57 to 58 °C,COC(=O)c1sc2ccccc2c1OCC(C)=O
16,191 to 194 °C,O=C(NCc1cccnc1)c1ccc2n1Cc1ccccc1N(C(=O)c1ccc(-c3ccccc3CN3CCOCC3)cc1)C2
17,65.9 to 66.7 °C,CCCCCCCCC(=O)NCCc1ccc(O)cc1
18,42 to 43 °C,O=Cc1cccc(Oc2cccc(F)c2)n1
19,286 to 291 °C,CC1(C)Cc2c(ccc3c2C(c2cccc(-c4ccc(C(=O)O)cc4)c2)=NCC3(C)C)O1
20,137 to 138 °C,Fc1cc2c(c(OCCNCCCc3c[nH]c4ccc(F)cc34)c1)OCCC2
21,176 °C,CNC(=O)[C@@H]1CCC[C@@H]1Nc1nc(Nc2ccc3c(c2)CCN(CCOC)CC3)ncc1Cl (relative stereo)
22,68 °C,CCOC(=O)c1c(C(F)(F)F)nc2c(C(F)(F)F)cccc2c1O

row,melting point,Compound
1,107 to 110 °C,N#Cc1ccccc1/C=C/C=O
2,149 to 150 °C,CS(=O)c1ccc(C2=C(c3ccccc3)C(=O)OC2)cc1 (stereo not drawn)
3,68 to 70 °C,O=C1OC(CCc2ccccc2)(c2ccccc2)CC(O)=C1CCc1ccccc1 (stereo not drawn)
4,149 to 150 °C,CC=CC=CC(O)c1ccc(-c2nc(C)c3c(n2)sc2c(OCC)nc(N4CCNCC4)nc23)cc1 (stereo not drawn)
5,84.5 to 85.5 °C,CCCCCCCCCCCCCCCCSCC(CNS(=O)(=O)CCCCl)OC(=O)NC (stereo not drawn)
6,146 to 148 °C,CSc1ccc(NC(=O)N(C)O)cc1
7,150 to 152 °C,CC(=O)O[C@H]1C=C(Br)[C@H](O)[C@@H](Br)[C@@H]1O
8,283 to 285 °C,CC(C)(C)c1ccc(CCN2C(=O)COc3ccc(C=C4SC(=S)NC4=O)cc32)cc1
9,193 to 194 °C,Cc1c(C)c2c(c(C)c1NC(=O)CC(C)(C)C)C(c1ccc(C3OCCO3)cc1)CO2 (stereo not drawn)
10,146 to 147 °C,C=CCOc1c(N)cc2c(C)cc(=O)oc2c1C
11,289 °C,CC(C)c1cccc(C(C)C)c1N1C(=O)c2cccc3c(Cl)ccc(c23)C1=O
12,229 to 230 °C,C=CC[C@H]1CC(C(=O)O)=C[C@@H](OC(CC)CC)[C@@H]1NC(C)=O
13,193 to 194 °C,O=C(O)C1CCc2c(c3cc(OCc4ccccc4)ccc3n2C(=O)c2ccccc2)C1 (stereo not drawn)
14,179 to 180 °C,O=C1COCCN1CCn1c2ccccc2c2c(N3CCCC3)nc(N3CCCC3)nc21
15,168 to 169 °C,COc1ccc2c(c1)C(C(=O)Nc1ccc(C(C)C)cc1)CCC2 (stereo not drawn)
16,129 to 130 °C,COC1CCN(CC=CC(=O)Nc2cc3c(Nc4ccc(F)c(Cl)c4)ncnc3cc2OCC2CC2)CC1
17,76 °C,COC(=O)CCC(=O)OC1CC(C)(C)N(O)C(C)(C)C1
18,244 °C,O=C1c2ccccc2C(=S)N1C1CCC(=S)NC1=S (stereo not drawn)
19,182 °C,O=c1nc(-c2ccccc2)c2ccccc2n1CC(F)(F)F
20,130 °C,O=C(Oc1cccc(C(F)(F)F)c1)n1c2c(c(=O)n(C3CCCCO3)c1=O)CCC2 (stereo not drawn)
21,122 to 123 °C,Nc1cc(N2CC(COCc3ccccc3)OC2=O)ccn1 (stereo not drawn)
22,136 to 140 °C,CNC1=NN(C(=O)c2ccccc2F)C(C)(C)S1

row,melting point,Compound
1,160 to 161 °C,CCCCCS(=O)(=O)NC(=O)/C=C/c1cc(OC2CCOCC2)nn1Cc1ccc(C(F)(F)F)cc1Cl
2,142 to 143 °C,CCNC(=O)Nc1c(C(O)(C(F)(F)F)C(F)(F)F)ccc2c1CCC2
3,96 to 98 °C,COC(=O)C(=O)c1ccc(OCCOc2ccc(C(F)(F)F)cc2)cc1
4,248 to 250 °C,O=C1NC(=S)CCC1N1Cc2c(cccc2[N+](=O)[O-])C1=S (stereo not drawn)
5,232 to 233 °C,CN1C(=N)N(C)C(=Cc2c[nH]c3ccccc23)C1=O
6,190 °C,O=[N+]([O-])c1cc2ccccc2nc1Nc1ccc(O)cc1
7,84 °C,Cl/C(=C/n1cncn1)c1ccc(Br)cc1Cl
8,187 to 188 °C,CCOC(=O)C1=C(C)NC2=C(C(=O)N(CCN(CC)CC)C2)C1c1ccccc1[N+](=O)[O-] (stereo not drawn)
9,171 to 172 °C,NC(=O)C[C@H](NC(=O)c1ccccn1)C(=O)O
10,298 to 300 °C,CC1(N)CN(c2c(F)cc3c(=O)c(C(=O)O)cn(C4CC4)c3c2F)C1
11,190 to 194 °C,CCN(CC)C(=O)c1c(OC)cccc1S(N)(=O)=O
12,59 to 60 °C,CCN(c1ccc(Br)cc1)S(=O)(=O)C(F)(F)F
13,147 to 148 °C,CN1CCC(=C2c3ccccc3-c3cocc3-c3ccccc32)CC1
14,188 to 190 °C,O=[N+]([O-])c1ccc2c(c1)C=C(N1CCN(Cc3ccc4c(c3)OCO4)CC1)c1ccccc1S2
15,157 to 158 °C,C1=Cn2cnnc2Cc2ccccc21
16,114 to 115 °C,CCOC(=O)c1c(-c2ccc(F)cc2)cc(-c2cccs2)nc1C(C)C
17,150 to 155 °C,Cc1ccc(Cc2cnc(NCCCN(Cc3ccccc3)c3ccc(Br)cn3)[nH]c2=O)cn1
18,135 to 137 °C,COC(=O)C(C)Oc1ncn(-c2cccc(C(F)(F)F)c2)n1 (stereo not drawn)
19,115 to 116 °C,CC(C)Oc1ccc(COc2ccc(CC(=O)O)cc2Cl)cc1
20,130 to 134 °C,CC(C)(OCc1cc(-c2ccc(Cl)cc2)no1)C(=O)O
21,196 to 197 °C,Cc1ccc(Cc2cnc(NCCCCc3ncc(Br)cc3N)[nH]c2=O)cn1
22,243 to 247 °C,O=C(Nc1ccc(Cl)c2c(Cl)ccnc12)c1c(Cl)cccc1Cl

row,Compound,melting point
1,CCC(=O)N(OC(=O)NC)C(=O)NC,90.5 to 92.5 °C
2,O=C(O)C(F)(F)C(F)(F)C(F)(F)C(F)(F)C(F)(F)C(F)(F)C(=O)O,142 to 144 °C
3,ON=CN1CCCC1C1=Nc2ccc(Cl)cc2C(c2ccccc2F)=NC1 (stereo not drawn),175 to 178 °C
4,CCNC(=O)ON=C1CCOc2ccccc21,110 to 111 °C
5,COc1cc(OCCN2C3C=C(c4ccc5ccccc5c4)CC2CC3)c2ncccc2c1 (stereo not drawn),100 to 103 °C
6,NC(c1ccccc1)C12CC(CN1)C2 (stereo not drawn),46.5 to 47 °C
7,FC(F)(F)c1ccc2c(C3CCNCC3)c[nH]c2c1,210 to 214 °C
